Like-named read-outs stand apart in the source and are kept apart here.
Experiment: Plasma and tissue concentrations of efavirenz after tail vein injection
Format: in vivo, CD-1 mice
Settings: mice, 5 mg/kg tail vein; for concentration at […]: 0.25 h
Method: The efavirenz-loaded apical AVT-EVs were subsequently injected via tail vein into CD-1 mice at a dose of 5 mg/kg and compared to a control injection of 5 mg/kg of conventional efavirenz (dissolved with DMSO). Plasma and tissue concentrations were determined by LC-MS/MS.

[1] = CD-1, mouse, liver, intravenous, LLOQ 35 ng/g, read-out: Efavirenz concentration, Liver
[2] = CD-1, mouse, lung, intravenous, LLOQ 35 ng/g, read-out: Efavirenz concentration, Lungs
[3] = CD-1, mouse, plasma, intravenous, read-out: Efavirenz concentration, Plasma

concentration at 0.083 h [1]: 7590 ng/g
concentration at […] [1]: 5420 ng/g
concentration at 0.5 h [1]: 5230 ng/g
concentration at 1 h [1]: 176 ng/g
concentration at 2 h [1]: 135 ng/g
concentration at 3 h (CD-1, mouse, liver, intravenous, 3 h, LLOQ 35 ng/g, read-out: Efavirenz concentration, Liver): 136 ng/g
concentration at 4 h (CD-1, mouse, liver, intravenous, 4 h, LLOQ 35 ng/g, read-out: Efavirenz concentration, Liver): 137 ng/g
concentration at 6 h (CD-1, mouse, liver, intravenous, 6 h, LLOQ 35 ng/g, read-out: Efavirenz concentration, Liver): 115 ng/g
concentration at 0.083 h [2]: 2140 ng/g
concentration at […] [2]: 802 ng/g
concentration at 0.5 h [2]: 830 ng/g
concentration at 1 h [2]: 273 ng/g
concentration at 0.083 h [3]: 4100 ng/mL
concentration at […] [3]: 2820 ng/mL
concentration at 0.5 h [3]: 1620 ng/mL
concentration at 1 h [3]: 1560 ng/mL
concentration at 2 h [3]: 724 ng/mL
concentration at 3 h (CD-1, mouse, plasma, intravenous, 3 h, read-out: Efavirenz concentration, Plasma): 396 ng/mL
concentration at 4 h (CD-1, mouse, plasma, intravenous, 4 h, read-out: Efavirenz concentration, Plasma): 103 ng/mL
concentration at 6 h (CD-1, mouse, plasma, intravenous, 6 h, read-out: Efavirenz concentration, Plasma): 64.4 ng/mL
concentration at 8 h (CD-1, mouse, plasma, intravenous, 8 h): 33.1 ng/mL
AUC(0-t) (CD-1, mouse, plasma, intravenous, read-out: area under the plasma-time concentration curve (AUC0-8h) of efavirenz): 4520 ng·h/mL
AUC0-8h for efavirenz in the lungs: 0.95 µg·h/g
lung:liver tissue AUC0-8h ratio: 0.19
overall exposure of the liver relative to the lungs: approximately 5 times
Efavirenz concentration, Lungs (3 h, LLOQ 35 ng/g): <LLOQ
Efavirenz concentration, Lungs (4 h, LLOQ 35 ng/g): <LLOQ
Efavirenz concentration, Lungs (6 h, LLOQ 35 ng/g): <LLOQ
Efavirenz concentration, Liver (8 h, LLOQ 35 ng/g): <LLOQ
Efavirenz concentration, Lungs (8 h, LLOQ 35 ng/g): <LLOQ
Compound: O=C1Nc2ccc(Cl)cc2[C@@](C#CC2CC2)(C(F)(F)F)O1 [Efavirenz in DMSO, efavirenz]
